# Laboratory results taken from patent US8951566B2, “Process for preparing products comprising stabilised actives and compositions comprising same” (priority 2011, dated 2015).
# Experiment: Blood glucose of a diabetic patient switched from Metformin to sublingual Exenatide tablet
# Assay type: in vivo, human
# Details: one diabetic patient; Exenatide 20 μg sublingual tablet once a day; FIGS. 1 and 2
# Experimental: A diabetic patient who was undergoing treatment with Metformin switched to once a day treatment with a slow release 20 μg Exenatide sublingual tablet prepared in accordance with Example 2. The fasting glucose and plasma glucose levels were measured and are depicted in FIGS. 1 and 2.
smiles,measurement,value
CN(C)C(=N)N=C(N)N [Metformin],blood glucose level / profile (fasting and 2 hours after a meal),erratic and difficult to control
